Patent US9555038B2, “Heterocycle-substituted tetracyclic compounds and methods of use thereof for the treatment of viral diseases” (Merck Sharp & Dohme Corp., priority 2013, dated 2017)
Read-outs that look alike come from different tables or passages of the source.

What was measured:
[1] = system: HCV replicon 1A; test: Cell-based HCV Replicon Assay A, replicon 1A
Procedure, shortened: (§1)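 Replicon cells were seeded at 2000 cells/well with test compound in 10 serial dilutions, starting at 333.3 nM to 1.667 nM, in 0.5% DMSO and 5% FBS. On day 3, cells were washed and lysed, and replicon RNA was quantified by multiplex TaqMan RT-PCR normalised to cyclophilin.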

[2] = system: HCV replicon 1AY93H; test: Cell-based HCV Replicon Assay A, replicon 1AY93H
Procedure, shortened: as §1

[3] = system: HCV replicon 2B; test: Cell-based HCV Replicon Assay A, replicon 2B
Procedure, shortened: as §1

[4] = system: HCV replicon 1AQ30D; test: Cell-based HCV Replicon Assay B, replicon 1AQ30D
Experimental: In an alternate assay (“Replicon Assay B”), 1000 cells were seeded per well in a 384-well collagen coated black plate from Greiner bio-one (Cat #781946) in 5% FBS. Inhibitors of this invention were added at 24 h post-seeding, and the plates were incubated for 3 days. Cells were subsequently lysed with Qiagen lysis buffer (Cat #1062731) to extract the RNA. HCV replicon RNA level was measured by real-time PCR using the RNA-to-CT kit from Applied Biosystem (Cat #4392656) and genotype-specific primers and probes. The amplicon was located within NS5B. The sequence of the PCR primers are as follows: 5B.2F, ATGGACAGGCGCCCTGA (SEQ. ID NO. 1); 5B.2R, […] (SEQ. ID NO. 2); the probe sequence was FAM-labeled CACGCCATGCGCTGCGG (SEQ. ID NO. 3). To detect genotype 1A the primer 1A F, TGCGGAACCGGTGAGTACA and 1A R, […] were used; the probe sequence was FAM-[…].
The real-time RT-PCR reactions were run on ABI PRISM 7900HT or Viia7 Sequence Detection System using the following program: 48° C. for 30 minutes, 95° C. for 10 minutes, 40 cycles of 95° C. for 15 sec, 60° C. for 1 minutes. The 50% effective concentration (EC50) was the drug concentration necessary to achieve an increase in the cycle threshold (CT) of 1 over the projected baseline CT.
Data was obtained for various compounds of the present invention using the methods described in the Example above, and is presented in the table immediately below. Data for replicons 1A, 1AY93H and 2B were obtained using Replicon Assay A and data for replicons 1AQ30D and 1B were obtained using Replicon Assay B.

[5] = system: HCV replicon 1B; test: Cell-based HCV Replicon Assay B, replicon 1B
Procedure, shortened: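 Replicon cells seeded in 5% FBS; compounds added 24 h later, then 3 days' incubation. Replicon RNA quantified by real-time RT-PCR with genotype-specific primers/probes (NS5B amplicon for 1b). EC50 = concentration raising CT by 1 over projected baseline.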

[6] = read-out: 1A Y93H IC50, replicon 1AY93H
[7] = Hepatitis C virus, read-out: 1A Q30D IC50 (nM), replicon 1AQ30D
[8] = Hepatitis C virus, read-out: 1A Y93H IC50 (nM), replicon 1AY93H
[9] = Hepatitis C virus, read-out: 2B IC50 (nM), replicon 2B
[10] = read-out: 1A Q30D IC50, replicon 1AQ30D

## COC(=O)N[C@H](C(=O)N1CCC[C@H]1c1ncc(-c2cc(F)c3c(c2)OC(c2cnc(C(F)F)s2)n2c-3cc3cc(-c4cnc([C@@H]5CCCN5C(=O)[C@@H](NC(=O)OC)C(C)C)[nH]4)ccc32)[nH]1)C(C)C (single isomer, unassigned) [Compound 20]
[1]; Hepatitis C virus
  IC50: 1.5 pM
[2]; [6]
  IC50: 0.0083 nM
[3]; read-out: 2B IC50, replicon 2B
  IC50: 0.008 nM
[4]; [7]
  IC50: 0.01 nM
[5]; Hepatitis C virus
  IC50: 1 pM

## COC(=O)N[C@H](C(=O)N1CCC[C@H]1c1ncc(-c2cc(F)c3c(c2)OC(c2cnc(CC(C)C)s2)n2c-3cc3cc(-c4cnc([C@@H]5CCCN5C(=O)[C@@H](NC(=O)OC)C(C)C)[nH]4)ccc32)[nH]1)C(C)C (single isomer, unassigned) [Compound 514]
[1]
  IC50: 2.2 pM
[2]; replicon 1AY93H, read-out: 1A Y93H IC50
  IC50: 0.012 nM
[3]; replicon 2B, read-out: 2B IC50
  IC50: 0.035 nM
[4]; replicon 1AQ30D, read-out: 1A Q30D IC50
  IC50: 0.174 nM
[5]
  IC50: 3 pM

## COC(=O)N[C@H](C(=O)N1CCC[C@H]1c1ncc(-c2cc(F)c3c(c2)OC(c2cnc(C(C)C)s2)n2c-3cc3cc(-c4cnc([C@@H]5C[C@H]6C[C@H]6N5C(=O)[C@@H](NC(=O)OC)C(C)C)[nH]4)ccc32)[nH]1)C(C)C (single isomer, unassigned) [Compound 89]
[1]; Hepatitis C virus
  IC50: 1.7 pM
[2]; [8]
  IC50: 0.0028 nM
[3]; [9]
  IC50: 0.029 nM
[4]; [7]
  IC50: 0.081 nM
[5]; Hepatitis C virus
  IC50: 3 pM

## COC(=O)NC(C(=O)N1CCC[C@H]1c1ncc(-c2ccc3c(c2)cc2n3C(c3cnc(C4CC4)s3)Oc3cc(-c4cnc([C@@H]5CCCN5C(=O)[C@@H](NC(=O)OC)C(C)C)[nH]4)cc(F)c3-2)[nH]1)C1C[C@@H](C)O[C@@H](C)C1 (single isomer, unassigned) [Compound 307]
[1]
  IC50: 4.2 pM
[2]; [6]
  IC50: 0.0083 nM
[3]; read-out: 2B IC50, replicon 2B
  IC50: 0.006 nM
[4]; [7]
  IC50: 0.047 nM
[5]; Hepatitis C virus
  IC50: 5 pM

## COC(=O)N[C@H](C(=O)N1CCC[C@H]1c1ncc(-c2cc(F)c3c(c2)OC(c2cnc(C4CC4C)s2)n2c-3cc3cc(-c4cnc([C@@H]5CCCN5C(=O)[C@@H](NC(=O)OC)C(C)C)[nH]4)ccc32)[nH]1)C(C)C (mixture of isomers) [Compound 491]
[1]; Hepatitis C virus
  IC50: 2.9 pM
[2]; [8]
  IC50: 0.01 nM
[3]; [9]
  IC50: 0.013 nM
[4]; [7]
  IC50: 0.3 nM
[5]; Hepatitis C virus
  IC50: 2.6 pM

## CCCc1ncc(C2Oc3cc(-c4cnc([C@@H]5CCCN5C(=O)[C@@H](NC(=O)OC)C(C)C)[nH]4)cc(F)c3-c3cc4cc(-c5cnc([C@@H]6C[C@H]7C[C@H]7N6C(=O)C(NC(=O)OC)C6CCOC(C)(C)C6)[nH]5)ccc4n32)s1 (single isomer, unassigned) [Compound 105]
[1]
  IC50: 2.2 pM
[2]; [6]
  IC50: 0.0029 nM
[4]; [10]
  IC50: 0.017 nM
[5]
  IC50: 4 pM

## COC(=O)NC(C(=O)N1CCC[C@H]1c1ncc(-c2ccc3c(c2)cc2n3C(c3cnc(C4CCC4)s3)Oc3cc(-c4cnc([C@@H]5CCCN5C(=O)[C@@H](NC(=O)OC)C(C)C)[nH]4)cc(F)c3-2)[nH]1)C1C[C@@H](C)O[C@@H](C)C1 (single isomer, unassigned) [Compound 67]
[1]
  IC50: 2 pM
[2]; [6]
  IC50: 0.225 nM
[3]; read-out: 2B IC50, replicon 2B
  IC50: 0.056 nM
[4]; [10]
  IC50: 1.39 nM
[5]
  IC50: 2 pM

## COC(=O)NC(C(=O)N1[C@@H]2C[C@@H]2C[C@H]1c1ncc(-c2ccc3c(c2)c(F)c2n3C(c3cnc(C4CC4)s3)Oc3cc(-c4cnc([C@@H]5CCCN5C(=O)[C@@H](NC(=O)OC)C(C)C)[nH]4)cc(F)c3-2)[nH]1)C1CCOC(C)(C)C1 (single isomer, unassigned) [Compound 112]
[1]; Hepatitis C virus
  IC50: 1.9 pM
[2]; [6]
  IC50: 0.0044 nM
[3]; read-out: 2B IC50, replicon 2B
  IC50: 0.004 nM
[4]; [7]
  IC50: 0.036 nM
[5]; Hepatitis C virus
  IC50: 3 pM

## COC(=O)NC(C(=O)N1[C@@H]2C[C@@H]2C[C@H]1c1ncc(-c2ccc3c(c2)cc2n3C(c3cnc(C4(C)CC4)s3)Oc3cc(-c4cnc([C@@H]5CCCN5C(=O)[C@@H](NC(=O)OC)C(C)C)[nH]4)cc(F)c3-2)[nH]1)C1CCOC(C)(C)C1 (single isomer, unassigned) [Compound 468]
[1]
  IC50: 3.3 pM
[2]; [6]
  IC50: 0.155 nM
[3]; read-out: 2B IC50, replicon 2B
  IC50: 0.234 nM
[4]; [10]
  IC50: 1.23 nM
[5]
  IC50: 2.9 pM

## COC(=O)NC(C(=O)N1CCC[C@H]1c1ncc(-c2ccc3c(c2)cc2n3C(c3cnc(C(C)C)s3)Oc3cc(-c4cnc([C@@H]5CCCN5C(=O)[C@@H](NC(=O)OC)C(C)C)[nH]4)cc(F)c3-2)[nH]1)C1C[C@@H](C)O[C@@H](C)C1 (single isomer, unassigned) [Compound 57]
[1]
  IC50: 1.6 pM
[2]; [6]
  IC50: 0.002 nM
[3]; read-out: 2B IC50, replicon 2B
  IC50: 0.005 nM
[4]; [7]
  IC50: 0.028 nM
[5]; Hepatitis C virus
  IC50: 1 pM

## COC(=O)NC(C(=O)N1[C@@H]2C[C@@H]2C[C@H]1c1ncc(-c2ccc3c(c2)cc2n3C(c3cnc(C4CC4)s3)Oc3cc(-c4cnc([C@@H]5CCCN5C(=O)[C@@H](NC(=O)OC)C(C)C)[nH]4)cc(F)c3-2)[nH]1)C(C)(C)F (single isomer, unassigned) [Compound 28]
[1]
  IC50: 1.2 pM
[2]; [6]
  IC50: 0.115 nM
[3]; read-out: 2B IC50, replicon 2B
  IC50: 0.204 nM
[4]; [10]
  IC50: 0.908 nM
[5]
  IC50: 2 pM

## COC(=O)NC(C(=O)N1CCC[C@H]1c1ncc(-c2ccc3c(c2)cc2n3C(c3cnc(CC(C)(C)C)s3)Oc3cc(-c4cnc([C@@H]5CCCN5C(=O)[C@@H](NC(=O)OC)C(C)C)[nH]4)cc(F)c3-2)[nH]1)C1CCOC(C)(C)C1 (some centres unmarked) [Compound 443]
[1]; Hepatitis C virus
  IC50: 3.1 pM
[2]; [8]
  IC50: 0.008 nM
[3]; [9]
  IC50: 0.006 nM
[4]; [7]
  IC50: 0.028 nM
[5]; Hepatitis C virus
  IC50: 3.1 pM

## COC(=O)NC(C(=O)N1[C@@H]2C[C@@H]2C[C@H]1c1ncc(-c2ccc3c(c2)cc2n3C(c3cnc(C4CC4)s3)Oc3cc(-c4cnc([C@@H]5CC6CC6N5C(=O)[C@@H](NC(=O)OC)C(C)C)[nH]4)cc(F)c3-2)[nH]1)C1CCOC(C)(C)C1 (single isomer, unassigned) [Compound 110]
[1]; Hepatitis C virus
  IC50: 3.3 pM
[2]; [8]
  IC50: 0.003 nM
[3]; [9]
  IC50: 0.007 nM
[4]; [7]
  IC50: 0.027 nM
[5]; Hepatitis C virus
  IC50: 4 pM

## COC(=O)NC(C(=O)N1[C@@H]2C[C@@H]2C[C@H]1c1ncc(-c2ccc3c(c2)cc2n3C(c3cnc(C4(C)CC4)s3)Oc3cc(-c4cnc([C@@H]5CCCN5C(=O)[C@@H](NC(=O)OC)C(C)C)[nH]4)cc(F)c3-2)[nH]1)C1C[C@@H](C)O[C@@H](C)C1 (single isomer, unassigned) [Compound 463]
[1]; Hepatitis C virus
  IC50: 2.6 pM
[2]; [6]
  IC50: 0.002 nM
[3]; read-out: 2B IC50, replicon 2B
  IC50: 0.007 nM
[4]; [10]
  IC50: 0.012 nM
[5]; Hepatitis C virus
  IC50: 2.8 pM

## COC(=O)NC(C(=O)N1CCC[C@H]1c1ncc(-c2ccc3c(c2)cc2n3C(c3cnc(C4CC4)s3)Oc3cc(-c4cnc([C@@H]5CCCN5C(=O)[C@@H](NC(=O)OC)C(C)C)[nH]4)cc(F)c3-2)[nH]1)C1C[C@@H](C)O[C@H](C)C1 (single isomer, unassigned) [Compound 305]
[1]
  IC50: 3 pM
[2]; [6]
  IC50: 0.0031 nM
[4]; [10]
  IC50: 0.015 nM
[5]
  IC50: 4 pM

## COC(=O)N[C@H](C(=O)N1CCC[C@H]1c1ncc(-c2cc(F)c3c(c2)OC(c2cnc(C4CC4)s2)n2c-3c(F)c3cc(-c4cnc([C@@H]5CCCN5C(=O)[C@@H](NC(=O)OC)C(C)C)[nH]4)ccc32)[nH]1)C(C)C (single isomer, unassigned) [Compound 21]
[2]; [6]
  IC50: 0.0177 nM
[3]; read-out: 2B IC50, replicon 2B
  IC50: 0.012 nM
[4]; [7]
  IC50: 0.494 nM
[5]; Hepatitis C virus
  IC50: 4 pM

## COC(=O)N[C@H](C(=O)N1CCC[C@H]1c1ncc(-c2cc(F)c3c(c2)OC(c2ncc(-c4ccc(C#N)cc4)s2)n2c-3cc3cc(-c4cnc([C@@H]5CCCN5C(=O)[C@@H](NC(=O)OC)C(C)C)[nH]4)ccc32)[nH]1)C(C)C (single isomer, unassigned) [Compound 44]
[2]; [6]
  IC50: 0.103 nM
[3]; read-out: 2B IC50, replicon 2B
  IC50: 0.054 nM
[4]; [10]
  IC50: 0.778 nM
[5]
  IC50: 2 pM

## COC(=O)N[C@H](C(=O)N1CCC[C@H]1c1ncc(-c2cc(F)c3c(c2)OC(c2cnc(Oc4ccc(F)cc4)s2)n2c-3cc3cc(-c4cnc([C@@H]5CCCN5C(=O)[C@@H](NC(=O)OC)C(C)C)[nH]4)ccc32)[nH]1)C(C)C (single isomer, unassigned) [Compound 50]
[2]; [6]
  IC50: 0.119 nM
[3]; read-out: 2B IC50, replicon 2B
  IC50: 0.158 nM
[4]; [10]
  IC50: 1.22 nM
[5]
  IC50: 1 pM

## COC(=O)NC(C(=O)N1CCC[C@H]1c1ncc(-c2ccc3c(c2)cc2n3C(c3cnc(C4CCC4)s3)Oc3cc(-c4cnc([C@@H]5CCCN5C(=O)[C@@H](NC(=O)OC)C(C)C)[nH]4)cc(C)c3-2)[nH]1)C1C[C@@H](C)O[C@H](C)C1 (single isomer, unassigned) [Compound 220]
[1]; Hepatitis C virus
  IC50: 4 pM
[2]; [8]
  IC50: 0.01 nM
[4]; [7]
  IC50: 0.046 nM
[5]; Hepatitis C virus
  IC50: 5 pM
